Ends that are not written are not given here.
Experiments:
[1] = system: seabream postvitellogenic ovarian explants; experiment: Avp production by ovarian explants in vitro (Avp ELISA); type: cell-based, gilthead seabream (Sparus aurata)
Source text: These observations would be compatible with a role of Avp regulating the intracellular trafficking of Aqp1ab1 and Aqp1ab2 in maturing oocytes, as observed in surrogate amphibian oocytes. […] To test this hypothesis, we carried out in vitro experiments in which the production of Avp by postvitellogenic ovarian explants in response to piscine single-chain recombinant […] evaluated by a custom made Avp enzyme-linked immunosorbent assay (ELISA) ( Supplementary Figure S3 ). To investigate the specificity of the rLh potential regulation, in these experiments we also tested the effect of single-chain recombinant follicle-stimulating hormone (rFsh). […] Pieces of the ovary at the […] stage (400-500 mg) were dissected from naturally spawning seabream females and placed in Petri dishes containing 75% Leivovitz L-15 culture medium with L-glutamine and 100 μg/ml gentamicin at pH 7.5. […] Control groups were treated with an equivalent volume of the cell culture medium used for […] production, or with 0.5% ethanol. After incubation, explants were frozen and stored at -80°C until Avp extraction and determination by ELISA. To determine the Avp levels in ovarian explants incubated in vitro, a competitive ELISA was developed using the specific anti-Avp antiserum and the synthetic Avp to create the standard curve ( Supplementary Figure S3 ). For this, polystyrene ELISA microtiter plates (F96 Maxisorp Nunc Immuno Plates; […] Ovarian explants were homogenized on ice with a glass dounce tissue homogenizer in water containing 0.25% glacial acetic acid in a proportion of 500 μl/100 mg tissue. After incubation of the homogenate at 100°C for 5 min, the samples were centrifuged a 10,000 × g for 5 min at 4°C, and the supernatant recovered in a new tube. […] Absorbance was read at 450 nm with a VICTOR3TM Multilabel Plate Reader (PerkinElmer, Inc.). […] The intra-assay coefficient of variation was 4.64% (calculated by assaying eight replicates of an ovarian sample at 50% of maximum binding on the same plate), whereas the inter-assay coefficient of variation was 8.35%.

[2] = system: X. laevis oocytes expressing the seabream Avpr1aa and Aqp1aa, Aqp1ab1 or Aqp1ab2 plus YwhazLb; experiment: Swelling assay (osmotic water permeability, P f) of X. laevis oocytes expressing Avpr1aa and TSA1C aquaporins; type: cell-based
[3] = system: seabream ovarian follicles; experiment: In vitro incubation of isolated seabream ovarian follicles (immunostaining, 3H2O uptake, co-immunoprecipitation); type: cell-based, gilthead seabream (Sparus aurata); settings: for Avp-mediated increase in phosphorylation of Aqp1ab1 and Aqp1ab2 and binding of Aqp1ab2 to YwhazLb: 10 µM inhibitor plus 10 µM Avp; for Avp-induced differential localization of Aqp1ab1 and Aqp1ab2 in the oocyte microvilli: 10 µM inhibitor preincubated prior to 10 µM Avp
Procedure: To investigate the physiological significance of the Avp regulation of the […] channel trafficking in seabream oocytes, we determined the dynamics of the subcellular localization of endogenous Aqp1aa, Aqp1ab1, and Aqp1ab2, and their interactions with YwhazLa and -zLb proteins, after Avp treatment in vitro, using the Aqp1ab1- and Aqp1ab2-specific antisera and commercial mammalian YWHAZ antibodies specific for seabream YwhazLa/b or -zLb ([12]). For this, we incubated isolated seabream vitellogenic ovarian follicles with Avp, in the presence or absence of the seabream Avpr1aa and Avpr2aa antagonist TLV or the PKA inhibitor H89, while control follicles were exposed to DMSO vehicle alone ( Figure 8 ).
In other experiments, groups of fully-grown postvitellogenic ovarian follicles (n = 10), manually isolated from the ovary, were incubated with 10 µM Avp in the same culture medium as above, in the presence or absence of 10 µM of the receptor antagonist TLV, or with 0.1% DMSO (controls) for 6 h at 18°C. After incubation, follicles were fixed for immunofluorescence microscopy, frozen in liquid nitrogen and stored at -80°C for further protein extraction, or processed for water uptake assays using radiolabeled water as previously described ([12]).
Isolated ovarian follicles were processed for immunofluorescence microscopy as previously described ([65], [66]). Control sections were incubated with antibodies (1:400 dilution) preadsorbed with the corresponding peptides used for immunization (for aquaporin antibodies), or with the Avp or Oxt synthetic peptides. Secondary antibodies were sheep anti-rabbit IgG Cy3 (Merck #C2306) or goat anti-chicken IgY Alexa Fluor 488 (Invitrogen #A11039) at a 1:1,000 dilution. Sections were counterstained with DAPI (1:10,000), and mounted with Fluoromount™ Aqueous Mounting Medium (Merck #F4680). Immunofluorescence was observed and documented with a Zeiss Axio Imager Z1/Apotome fluorescent microscope (Carl Zeiss Corp.). Changes in Aqp1ab1 and Aqp1ab2 in the oocyte plasma membrane after Avp treatment were evaluated using the ImageJ software v.1.52o (https://imagej.nih.gov/ij/) as previously described ([12]).
X. laevis oocytes and seabream follicles (n = 10) were homogenized in the lysis buffer from the Pierce™ Crosslink Magnetic IP/Co-IP Kit (Pierce Thermo Fisher Scientific, #88805) with a bouncer on ice, and centrifuged at 14,000 × g for 1 min. An aliquot (10%) of the protein extract was collected as “input” and mixed with 2 × Laemmli sample buffer, whereas the remaining extract was incubated overnight at 4°C under constant agitation with magnetic beads previously coated with anti-Aqp1ab1 or anti-Aqp1ab2 antibodies. For rabbit primary antibodies, the immunoprecipitation was carried out using the kit indicated above, and final eluted proteins in 50 µl of elution buffer were mixed with 4 × Laemmli sample buffer supplemented with protease and phosphatase inhibitors. For chicken antibodies, the immunoprecipitation was performed using Dynabeads™ M-280 Tosylactivated (Invitrogen Thermo Fisher Scientific, #14203) following the manufacturer’s instructions. The input and immunoprecipitated samples were immunoblotted as indicated above.

[4] = system: X. laevis oocytes expressing the seabream Avpr2aa and Aqp1aa, Aqp1ab1 or Aqp1ab2 plus YwhazLb; experiment: Swelling assay (osmotic water permeability, P f) of X. laevis oocytes expressing Avpr2aa and TSA1C aquaporins; type: cell-based
seabream Avpr2aa = experiment: Activation of seabream Avpr2aa in transfected HEK293T cells (pCRE-luc / pSRE-luc reporters, Fluo-4 AM Ca2+); type: cell-based, gilthead seabream (Sparus aurata); settings: for effect on Avpr2aa activation: antagonist 10^-12 to 10^-5 M before 10^-8 M Avp
seabream Avpr1aa = seabream Avpr1aa (Sparus aurata, UniProt R9X0I6); experiment: Activation of seabream Avpr1aa in transfected HEK293T cells (pCRE-luc / pSRE-luc reporters, Fluo-4 AM Ca2+); type: cell-based, gilthead seabream (Sparus aurata); settings: for IC50: antagonist 1 h before 10^-8 M Avp, HEK293T, read-out: IC50, inhibition of Avpr1aa activation
seabream Oxtrb = seabream Oxtrb (Sparus aurata, UniProt R9WVY7); experiment: Activation of seabream Oxtrb in transfected HEK293T cells (pCRE-luc / pSRE-luc reporters, Fluo-4 AM Ca2+); type: cell-based, gilthead seabream (Sparus aurata); settings: for effect on Oxtrb activation: antagonist 10^-12 to 10^-5 M before 10^-8 M Oxt
[5] = 10 µM Avp, co-immunoprecipitation and immunoblotting

For `C[C@@H](O)[C@@]1(O)CC[C@H]2[C@@H]3CCC4=CC(=O)CC[C@]4(C)[C@H]3CC[C@@]21C` [17,20β-P, 17α,20β-dihydroxypregn-4-en-3-one], the “increase in Avp synthesis in ovarian explants” value ([1]; 0.1 µg/ml, ~20 h) was 3 fold.
`CN1CCCC1CCn1cc(C2=C(c3c[nH]c4ccccc34)C(=O)NC2=O)c2ccccc21` (stereo not shown) [Bim-II, bisindolylmaleimide II] was tested, and the “Avp-induced inhibition of P f” value ([2]; Avpr1aa+Aqp1aa oocytes preincubated with 10 µM inhibitor 1 h before 10 µM Avp) was “prevented”.
`O=S(=O)(NCCNC/C=C/c1ccc(Br)cc1)c1cccc2cnccc12` [H89] was tested, and the “Avp-mediated increase in phosphorylation of Aqp1ab1 and Aqp1ab2 and binding of Aqp1ab2 to YwhazLb” value [3] was “blocked”, the “Avp-induced differential localization of Aqp1ab1 and Aqp1ab2 in the oocyte microvilli” value [3] was “prevented” and the “water permeability of follicles (3H2O uptake) in the presence of Avp plus inhibitor” value ([3]; not told) was “reduced”. For the same compound, the “positive effect of Avp on plasma membrane trafficking of wild-type Aqp1ab1 and Aqp1ab1-S156A” value [4] was “equally abolished” and the “Avp-induced insertion of Aqp1ab1 or Aqp1ab2 into the oocyte plasma membrane / P f increase” value ([4]; Avpr2aa oocytes, 10 µM inhibitor 1 h before 10 µM Avp) was “prevented”.
In the case of `COc1cc(OC2CCN(C(C)=O)CC2)ccc1C(=O)N1CCC(N2C(=O)OCc3ccccc32)CC1` [L-371,257, 1-(1-[4-[(N-acetyl-4-piperidinyl)oxy]-2-methoxybenzoyl]piperidin-4-yl)-4H-3,1-benzoxazin-2(1H)-one], the “effect on Avpr2aa activation” value (seabream Avpr2aa) is reported as “no effect”.
In the case of `C=C[C@]12CCC(=O)C=C1CC[C@H]1[C@@H]3CC[C@H](C(C)=O)[C@@]3(C)CC[C@@H]12` [OD 02-0, 10-ethenyl-19-norprogesterone], the “Avp synthesis in ovarian explants in the absence of 17,20β-P” value ([1]; 10 µM, ~20 h) is reported as “not reproduced”.
For `CC#C[C@]1(O)CC[C@H]2[C@@H]3CCC4=CC(=O)CCC4=C3[C@@H](c3ccc(N(C)C)cc3)C[C@@]21C` [RU486], the “17,20β-P-induced increase in Avp synthesis” value ([1]; 100 µM inhibitor with 0.1 µg/ml 17,20β-P) was “completely abolished”.
`COc1ccc(S(=O)(=O)N2c3ccc(Cl)cc3[C@](O)(c3ccccc3Cl)[C@@H]2C(=O)N2CCC[C@H]2C(N)=O)cc1OC` [SR49059] was tested, and the IC50 (seabream Avpr1aa) was about 1 nM, the “effect on Avpr2aa activation” value (seabream Avpr2aa) was “inhibited” and the “effect on Oxtrb activation” value (seabream Oxtrb) was “not affected”.
With `Cc1ccccc1C(=O)Nc1ccc(C(=O)N2CCCC(O)c3cc(Cl)ccc32)c(C)c1` (stereo not shown) [TLV, 7-Chloro-5-hydroxy-1-[2-methyl-4-(2-methylbenzoyl-amino)benzoyl]-2,3,4,5-tetrahydro-1H-1-benzazepine] the IC50 (seabream Avpr1aa) was about 1 nM, the “water permeability of follicles (3H2O uptake) in the presence of Avp plus inhibitor” value ([3]; 10 µM Avp plus 10 µM inhibitor) was “reduced” and the “Avp-mediated increase in phosphorylation of Aqp1ab1 and Aqp1ab2 and binding of Aqp1ab2 to YwhazLb” value [3] was “blocked”. For the same compound, the “Avp-induced differential localization of Aqp1ab1 and Aqp1ab2 in the oocyte microvilli” value [3] was “prevented”, the “effect on Avpr2aa activation” value (seabream Avpr2aa) was “inhibited” and the “potency at blocking Avpr2aa relative to SR49059” value (seabream Avpr2aa; antagonist before 10^-8 M Avp) was ~ 10 times more potent. For the same compound, the “effect on Oxtrb activation” value (seabream Oxtrb) was “not affected”.
For “CYIQNCPRG-NH2 (ends and bridges not checked) [Avp]”, the “pCRE-mediated luciferase activity (cAMP)” value (seabream Avpr1aa; HEK293T cells expressing Avpr1aa) was “did not induce measurable increases”, the “pSRE-induced luciferase activity (PKC activation)” value (seabream Avpr1aa; HEK293T cells expressing Avpr1aa, 10^-12 to 10^-5 M, 3 h) was “concentration-dependent increase” and the “intracellular Ca2+ concentration ([Ca2+]i)” value (seabream Avpr1aa; HEK293T cells expressing Avpr1aa, Fluo-4 AM) was “concentration-dependent increase”. For the same compound, the “meiotic maturation or oocyte hydration” value ([3]; 10 µM Avp, 6 h, 18°C) was “did not induce”, the “phosphorylation of Aqp1ab1” value [3, 5] was “more phosphorylated” and the “phosphorylation of Aqp1ab2” value [3, 5] was “increased”. The “localization of Aqp1aa (follicular epithelium)” value ([3]; 10 µM Avp, immunofluorescence) was “did not appear to change”, the “localization of Aqp1ab1 immunoreactivity” value ([3]; 10 µM Avp, immunofluorescence) was “more concentrated in the most distal part of the microvilli” and the “localization of Aqp1ab2 channel” value ([3]; 10 µM Avp, immunofluorescence) was “localized in a more basal region of the microvilli”. For the same compound, the “water permeability of follicles (3H2O uptake)” value ([3]; not told) was “higher”, the EC50 (seabream Avpr2aa; Avp on Avpr2aa, HEK293T, read-out: approximate EC50 on cognate receptor) was about 10 nM and the “PKC activation (pSRE-luc)” value (seabream Avpr2aa; HEK293T cells expressing Avpr2aa) was “not activated”. The “pCRE-induced luciferase activity (cAMP)” value (seabream Avpr2aa; HEK293T cells expressing Avpr2aa, 10^-12 to 10^-5 M) was “potent dose-dependent response”, the “intracellular Ca2+ concentration ([Ca2+]i)” value (seabream Avpr2aa; HEK293T cells expressing Avpr2aa, Fluo-4 AM) was “not affected” and the “reduction of P f” value ([2]; oocytes expressing Avpr1aa + Aqp1aa, 10 µM Avp, 3 h) was 80%. The “oocyte P f triggered by FSK exposure” value ([2]; oocytes expressing Avpr1aa + Aqp1ab2 (+YwhazLb), 10 µM Avp, 10 µM FSK) was “did not affect”, the “intracellular Ca2+ concentration ([Ca2+]i)” value (seabream Oxtrb; HEK293T cells expressing Oxtrb, Fluo-4 AM) was “only a slight increase” and the “P f” value ([4]; oocytes co-expressing Avpr2aa and Aqp1aa, 10 µM Avp) was “did not change”. The “increase in P f” value ([4]; oocytes expressing Avpr2aa + Aqp1ab1, 10 µM Avp) was ~ 2 fold and the “increase in P f” value ([4]; oocytes expressing Avpr2aa + Aqp1ab2+YwhazLb, without FSK pretreatment, 10 µM Avp) was ~ 4 fold.
